Data published in PubChem BioAssay (NCI).
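Protocol summary: plate cells (96-well), add compound at 5 concentrations, incubate 48 h, interpolate endpoints linearly. TGI denotes the concentration required for complete inhibition of growth.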

Key:
Assay in all cases: NCI tumour cell line growth inhibition, 48 h
[1] = tested on: 786-0 renal
[2] = tested on: A498 renal
[3] = tested on: A549 NSCLC
[4] = tested on: ACHN renal
[5] = tested on: CAKI-1 renal
[6] = tested on: CCRF-CEM leukemia
[7] = tested on: COLO 205 colon
[8] = tested on: DU-145 prostate
[9] = tested on: EKVX NSCLC
[10] = tested on: HCC-2998 colon
[11] = tested on: HCT-116 colon
[12] = tested on: HCT-15 colon
[13] = tested on: HL-60(TB) leukemia
[14] = tested on: HOP-62 NSCLC
[15] = tested on: HOP-92 NSCLC
[16] = tested on: HS 578T breast
[17] = tested on: HT29 colon
[18] = tested on: IGROV1 ovarian
[19] = tested on: K-562 leukemia
[20] = tested on: KM12 colon
[21] = tested on: LOX IMVI melanoma
[22] = tested on: M14 melanoma
[23] = tested on: MALME-3M melanoma
[24] = tested on: MCF7 breast
[25] = tested on: MDA-MB-231 breast
[26] = tested on: MDA-MB-435
[27] = tested on: MDA-N
[28] = tested on: NCI-H23 lung
[29] = tested on: NCI-H460 lung
[30] = tested on: NCI-H522 lung
[31] = tested on: NCI/ADR-RES ovarian
[32] = tested on: OVCAR-3 ovarian
[33] = tested on: OVCAR-4 ovarian
[34] = tested on: OVCAR-5 ovarian
[35] = tested on: OVCAR-8 ovarian
[36] = tested on: PC-3 prostate
[37] = tested on: RPMI-8226 leukemia
[38] = tested on: RXF 393 renal
[39] = tested on: SF-295 CNS
[40] = tested on: SF-539 CNS
[41] = tested on: SK-MEL-2 melanoma
[42] = tested on: SK-MEL-28 melanoma
[43] = tested on: SK-MEL-5 melanoma
[44] = tested on: SK-OV-3 ovarian
[45] = tested on: SN12C renal
[46] = tested on: SNB-19 CNS
[47] = tested on: SNB-75 CNS
[48] = tested on: SR leukemia
[49] = tested on: SW-620 colon
[50] = tested on: T-47D breast
[51] = tested on: TK-10 renal
[52] = tested on: U251 CNS
[53] = tested on: UACC-257 melanoma
[54] = tested on: UACC-62 melanoma
[55] = tested on: UO-31 renal

CC(=O)NC1C(OCc2ccccc2)OC(CO)C(O)C1OCC(=O)N[C@@H](C)C(=O)N[C@H](CCC(=O)NCCNCCNc1c2ccccc2nc2cccc([N+](=O)[O-])c12)C(N)=O (stereo not given in full)
TGI [1]: 99.4 µM | TGI [2]: 48.1 µM | TGI [3]: > 100 µM | TGI [4]: 79.6 µM | TGI [5]: 69 µM | TGI [6]: > 100 µM | TGI [7]: > 100 µM | TGI [8]: > 100 µM | TGI [9]: 91.1 µM | TGI [10]: 22.5 µM | TGI [11]: 54.8 µM | TGI [12]: > 100 µM | TGI [13]: > 100 µM | TGI [14]: > 100 µM | TGI [15]: 66.5 µM | TGI [16]: > 100 µM | TGI [17]: 72.3 µM | TGI [18]: 32.7 µM | TGI [19]: > 100 µM | TGI [20]: 78.5 µM | TGI [21]: 61.9 µM | TGI [22]: > 100 µM | TGI [23]: 55.5 µM | TGI [24]: > 100 µM | TGI [25]: > 100 µM | TGI [26]: 71.1 µM | TGI [27]: > 100 µM | TGI [28]: 35.3 µM | TGI [29]: 36.5 µM | TGI [30]: 28.1 µM | TGI [31]: > 100 µM | TGI [32]: > 100 µM | TGI [33]: 40.2 µM | TGI [34]: > 100 µM | TGI [35]: > 100 µM | TGI [36]: 73 µM | TGI [37]: 73.3 µM | TGI [38]: 64 µM | TGI [39]: > 100 µM | TGI [40]: > 100 µM | TGI [41]: 46.5 µM | TGI [42]: > 100 µM | TGI [43]: 39.5 µM | TGI [44]: > 100 µM | TGI [45]: > 100 µM | TGI [46]: > 100 µM | TGI [47]: > 100 µM | TGI [48]: > 100 µM | TGI [49]: > 100 µM | TGI [50]: > 100 µM | TGI [51]: > 100 µM | TGI [52]: > 100 µM | TGI [53]: 43 µM | TGI [54]: 35.2 µM | TGI [55]: > 100 µM
